Here are results for 11 compounds from US8008291B2 (Mimetica Pty Ltd, priority 2008, dated 2011).

The target in the test is T1, human MC5R (hMC5R) (Homo sapiens, UniProt P33032).
T1 construct: purchased Perkin Elmer RBXMC5M400UA
T1 sequence (P33032 whole entry): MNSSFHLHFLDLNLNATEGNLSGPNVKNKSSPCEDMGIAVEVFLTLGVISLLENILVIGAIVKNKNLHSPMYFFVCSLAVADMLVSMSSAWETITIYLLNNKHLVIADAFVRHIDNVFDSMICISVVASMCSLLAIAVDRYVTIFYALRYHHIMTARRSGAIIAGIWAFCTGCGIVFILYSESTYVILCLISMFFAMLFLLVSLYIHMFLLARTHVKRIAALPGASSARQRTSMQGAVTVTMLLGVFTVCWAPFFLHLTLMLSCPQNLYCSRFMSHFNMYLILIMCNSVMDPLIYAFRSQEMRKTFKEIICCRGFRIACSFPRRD
Description: Human MC5R radioligand binding assay (membranes, [125I] NDP-MSH displacement). The settings on record: hMC5R binding; tested as trifluoroacetate or hydrochloride salts, or free bases; read-out: MC5R radioligand IC50. The method, then:
Assessments of compound binding to human MC5R (hMC5R) ) by displacement of an ^125I-labeled NDP-MSH receptor ligand peptide were performed essentially as described in the data sheets produced by Perkin Elmer to accompany their frozen hMC5R membranes (Perkin Elmer catalog number RBXMC5M400UA).
[^125I] NDP-MSH: radiolabeled in house and purified by HPLC:
• Na^125I (0.5 mCi, 17.4 Ci/mg) was added to 50 μL sodium phosphate (50 mM, pH7.4) in an eppendorf tube precoated with IODOGEN. After incubation for 10 mins the phosphate buffer containing the iodine was added to NDP-MSH (10 ul at 1 mg/mL) in a separate eppendorf tube. This was incubated for a further 10 mins. The iodinated NDP-MSH was purified by HPLC on a Zorbax SB 300 column using solvent A: 0.05% TFA and solvent B: 90% acetonitrile 0.045% TFA with a linear gradient, 0-67% B over 60 mins. […] Resuspended membranes were kept on ice until they were added to the wells of the plate. Binding Protocol for 400 microassays per vial: • Assays were performed in 96 well polypropylene plates. […] This was incubated for 1 hr at 37° C.
On to `CC[C@H](CN1CC[C@@H](CNC(=O)c2ccc(Cl)c(Cl)c2)N[C@@H](CCN(C)Cc2ccccc2)C1=O)c1ccccc1` [Compound 442, N-(((3S,5S)-3-(2-(benzyl(methyl)amino)ethyl)-2-oxo-1-((S)-2-phenylbutyl)-1,4-diazepan-5-yl)methyl)-3,4-dichlorobenzamide], for which the concentration for half-maximal inhibition (IC50) is < 10 nM.
On to `CC(C)C(CN1CC[C@@H](CNC(=O)c2ccc3ccccc3c2)N[C@@H](CCN)C1=O)c1ccccc1` (stereo partly drawn) [Compound 388, N-(((3S,5S)-3-(2-aminoethyl)-1-(3-methyl-2-phenylbutyl)-2-oxo-1,4-diazepan-5-yl)methyl)-2-naphthamide], for which the IC50 was < 10000 nM.
`O=C1[C@H](CCN2CCCCC2)N[C@H](CNCc2ccc(Cl)c(Cl)c2)CCN1CC(c1ccccc1)c1ccccc1` [Compound 456, (3S,5S)-5-((3,4-dichlorobenzylamino)methyl)-1-(2,2-diphenylethyl)-3-(2-(piperidin-1-yl)ethyl)-1,4-diazepan-2-one]: the IC50 is < 100 nM.
As to `N=C(N)NCCC[C@@H]1N[C@H](CNC(=O)/C=C/c2ccccc2O)CCN(CC(c2ccccc2)c2ccccc2)C1=O` [Compound 189, (E)-N-(((3S,5S)-1-(2,2-diphenylethyl)-3-(3-guanidinopropyl)-2-oxo-1,4-diazepan-5-yl)methyl)-3-(2-hydroxyphenyl)acrylamide], the IC50 was < 1000 nM.
As for `O=C(NC[C@@H]1CCN(Cc2cc(Cl)cc(Cl)c2)C(=O)[C@H](CCN2CCCCC2)N1)c1ccc(Cl)cc1Cl` [Compound 528, 2,4-dichloro-N-(((3S,5S)-1-(3,5-dichlorobenzyl)-2-oxo-3-(2-(piperidin-1-yl)ethyl)-1,4-diazepan-5-yl)methyl)benzamide], the IC50 was < 10 nM.
Take `C=C(C)C(CC)CN1CC[C@@H](CNC(=O)c2ccc(Cl)c(Cl)c2)N[C@@H](CCN2CCCCC2)C1=O` (stereo partly drawn) [Compound 476, 3,4-dichloro-N-(((3S,5S)-1-(2-ethyl-3-methylbut-3-enyl)-2-oxo-3-(2-(piperidin-1-yl)ethyl)-1,4-diazepan-5-yl)methyl)benzamide]: the IC50 is < 1000 nM.
Consider `N=C(N)NCCC[C@@H]1N[C@H](CNC(=O)c2ccc3ccccc3c2)CCN(CC(C(=O)Nc2ccccc2)c2ccccc2)C1=O` (stereo partly drawn) [Compound 344, N-(((3S,5S)-3-(3-guanidinopropyl)-2-oxo-1-(3-oxo-2-phenyl-3-(phenylamino)propyl)-1,4-diazepan-5-yl)methyl)-2-naphthamide], for which the 50% inhibitory concentration (IC50) is < 10000 nM.
`CC(C)c1ccc(/C=C/C(=O)NC[C@@H]2CCN(CC(c3ccccc3)c3ccccc3)C(=O)[C@H](CCN3CCCCC3)N2)cc1` [Compound 396, (E)-N-(((3S,5S)-1-(2,2-diphenylethyl)-2-oxo-3-(2-(piperidin-1-yl)ethyl)-1,4-diazepan-5-yl)methyl)-3-(4-isopropylphenyl)acrylamide]: the concentration for half-maximal inhibition (IC50) was < 100 nM.
The result for `CC[C@@H](CN1CC[C@@H](CNC(=O)c2ccc(Cl)c(Cl)c2)N[C@@H](CCN2CCCCC2)C1=O)C(C)C` [Compound 461, 3,4-dichloro-N-(((3S,5S)-1-((R)-2-ethyl-3-methylbutyl)-2-oxo-3-(2-(piperidin-1-yl)ethyl)-1,4-diazepan-5-yl)methyl)benzamide] reads < 100 nM.
Regarding `COc1ccc(C(CN2CC[C@@H](CNC(=O)c3ccc4ccccc4c3)N[C@@H](CCCNC(=N)N)C2=O)c2ccc(OC)cc2)cc1` [Compound 244, N-(((3S,5S)-1-(2,2-bis(4-methoxyphenyl)ethyl)-3-(3-guanidinopropyl)-2-oxo-1,4-diazepan-5-yl)methyl)-2-naphthamide], the 50% inhibitory concentration (IC50) was < 10000 nM.
In the case of `O=C(NC[C@@H]1CCN(Cc2cc(Cl)cc(Cl)c2)C(=O)[C@H](CCN2CCCCC2)N1)c1ccc2cc(Cl)ccc2c1` [Compound 467, 6-chloro-N-(((3S,5S)-1-(3,5-dichlorobenzyl)-2-oxo-3-(2-(piperidin-1-yl)ethyl)-1,4-diazepan-5-yl)methyl)-2-naphthamide], the concentration for half-maximal inhibition (IC50) was < 100 nM.

In general, IC50 refers to the concentration that inhibits the measured activity by half.
